# Measurements from patent US10329324B2 (viDA Therapeutics Inc., priority 2013, dated 2019).
# Counter-ions that a name gives are not always drawn. Like-named read-outs stand apart in the source and are kept apart here.
# Key:
# human Granzyme B (hGzmB) = biological target: T1, human Granzyme B (hGzmB) (Homo sapiens, UniProt P10144); assay: Human Granzyme B enzymatic inhibition assay (fluorogenic, kinetic); assay type: biochemical; conditions: activity codes, Table 7; read-out: IC50 Activity Range
# T1 construct: purchased Froelich Lab, Northshore University Health Systems Research Institute, Evanston, Ill., USA
# T1 sequence (P10144 21-247): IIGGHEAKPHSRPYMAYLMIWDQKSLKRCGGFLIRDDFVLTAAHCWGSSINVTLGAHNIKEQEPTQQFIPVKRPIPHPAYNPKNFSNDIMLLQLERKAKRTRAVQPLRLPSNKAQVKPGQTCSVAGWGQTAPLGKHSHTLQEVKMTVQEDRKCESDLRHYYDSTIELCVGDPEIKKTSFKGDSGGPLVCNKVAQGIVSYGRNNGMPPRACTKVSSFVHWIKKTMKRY
# In short: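 Human Granzyme B preincubated with compound for 30 min total (5 min shaking, 20 min bench, then reaction temperature). Fluorogenic substrate added and read kinetically, 25 cycles at 1-min intervals. Percent inhibition at one or two concentrations or 8–12-point 3-fold dose response from 20 uM, replicates, with IC50 by non-linear regression.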
# [1] = Kinetic solubility determination in PBS; assay type: physicochemical; conditions: phosphate buffered saline (PBS 1×), 21 °C, pH 7.4, aqueous buffer, kinetic from dmso stock, PBS 1X pH 7.4, 2.0% DMSO, 24 hour incubation at ambient temperature
# In short: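 DMSO stocks were diluted into PBS (1×) pH 7.4 to 2.0% final DMSO and a maximum theoretical concentration of typically 200 μM. After 24 hour incubation at ambient temperature (20.5-21.7° C.), samples were vacuum filtered. The filtrate was quantified by chemiluminescent nitrogen detection against a nitrogen calibration curve, with background-corrected values given in μM and μg/mL.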
# [2] = read-out: Solubility in aqueous PBS Buffer (1X, pH 7.4)
# [3] = read-out: Solubility in aqueous PBS Buffer (1X, pH 7.4), ug/mL
SMILES,IC50 (human Granzyme B (hGzmB)),"solubility at 24 h [1, 2]","solubility at 24 h [1, 3]"
"CC[C@H](C)[C@H](NC(=O)Cc1ccccc1)C(=O)N[C@@H](C)C(=O)N1c2ccccc2C[C@H]1C(=O)NCc1nn[nH]n1 [Example C11, (2S)-1-[(2S)-2-[(2S,3S)-3-Methyl-2-(2-Phenylacetamido)Pentanamido]Propanoyl]-N-(2H-1,2,3,4-Tetrazol-5-Ylmethyl)-2,3-Dihydro-1H-Indole-2-Carboxamide]",1000 to 10000 nM,125 µM,68 µg/mL
"CC[C@H](C)[C@H](NC(=O)Cc1ccccc1)C(=O)N[C@H](C)C(=O)N1c2ccccc2C[C@H]1C(=O)NCc1nn[nH]n1 [Example C12, (2S)-1-[(2R)-2-[(2S,3S)-3-Methyl-2-(2-Phenylacetamido)Pentanamido]Propanoyl]-N-(2H-1,2,3,4-Tetrazol-5-Ylmethyl)-2,3-Dihydro-1H-Indole-2-Carboxamide]",> 10000 nM,112 µM,61 µg/mL
"CC[C@H](C)[C@H](NC(=O)Cc1ccccc1)C(=O)N[C@@H](CCC(=O)O)C(=O)N1c2ccccc2C[C@H]1C(=O)NCc1nn[nH]n1 [Example C13, (4S)-4-[(2S,3S)-3-Methyl-2-(2-Phenylacetamido)Pentanamido]-5-Oxo-5-[(2S)-2-[(2H-1,2,3,4-Tetrazol-5-Ylmethyl)Carbamoyl]-2,3-Dihydro-1H-Indol-1-Yl]Pentanoic Acid]",100 to 1000 nM,> 750 µM,> 454 µg/mL
"CC[C@H](C)[C@H](NC(=O)Cc1ccccc1)C(=O)NCC(=O)N1c2cc(N)ccc2C[C@H]1C(=O)NCc1nn[nH]n1 [Example C20, (2S)-6-Amino-1-{2-[(2S,3S)-3-Methyl-2-(2-Phenylacetamido)Pentanamido]Acetyl}-N-(2H-1,2,3,4-Tetrazol-5-Ylmethyl)-2,3-Dihydro-1H-Indole-2-Carboxamide]",100 to 1000 nM,596 µM,348 µg/mL
"O=C(O)CCC(=O)N[C@H](C(=O)NCC(=O)N1c2ccccc2C[C@H]1C(=O)NCc1nn[nH]n1)c1cccs1 [Example C24, 3-{[(R)-({2-Oxo-2-[(2S)-2-[(2H-1,2,3,4-Tetrazol-5-Ylmethyl)Carbamoyl]-2,3-Dihydro-1H-Indol-1-Yl]Ethyl}Carbamoyl)(Thiophen-2-Yl)Methyl]Carbamoyl}Propanoic Acid]",100 to 1000 nM,> 750 µM,> 405 µg/mL
"CC[C@H](C)[C@H](NC(=O)Cc1ccccc1)C(=O)NCC(=O)N1c2cc(NC(C)=O)ccc2C[C@H]1C(=O)NCc1nn[nH]n1 [Example C27, (2S)-6-Acetamido-1-{2-[(2S,3S)-3-Methyl-2-(2-Phenylacetamido)Pentanamido]Acetyl}-N-(2H-1,2,3,4-Tetrazol-5-Ylmethyl)-2,3-Dihydro-1H-Indole-2-Carboxamide]",100 to 1000 nM,> 750 µM,> 442 µg/mL
"CC[C@H](C)[C@H](NC(=O)Cc1ccccc1)C(=O)NCC(=O)N1c2ccc(N)cc2C[C@H]1C(=O)NCc1nn[nH]n1 [Example C32, (2S)-5-Amino-1-{2-[(2S,3S)-3-Methyl-2-(2-Phenylacetamido)Pentanamido]Acetyl}-N-(2H-1,2,3,4-Tetrazol-5-Ylmethyl)-2,3-Dihydro-1H-Indole-2-Carboxamide Hydrochloride]",100 to 1000 nM,> 750 µM,> 438 µg/mL

# Further lines, results first:
IC50 (human Granzyme B (hGzmB)),"solubility at 24 h [1, 2]","solubility at 24 h [1, 3]",SMILES
< 100 nM,682 µM,359 µg/mL,"O=C(O)CCC(=O)N[C@H](C(=O)NCC(=O)N1c2ccccc2C[C@H]1C(=O)NCc1nn[nH]n1)C1CCCC1 [Example A45, 3-{[(S)-Cyclopentyl({2-Oxo-2-[(2S)-2-[(2H-1,2,3,4-Tetrazol-5-Ylmethyl)Carbamoyl]-2,3-Dihydro-1H-Indol-1-Yl]Ethyl}Carbamoyl)Methyl]Carbamoyl}Propanoic Acid]"
< 100 nM,> 750 µM,> 375 µg/mL,"CC(C)[C@H](NC(=O)CCC(=O)O)C(=O)NCC(=O)N1c2ccccc2C[C@H]1C(=O)NCc1nn[nH]n1 [Example A46, 3-{[(1S)-2-Methyl-1-({2-Oxo-2-[(2S)-2-[(2H-1,2,3,4-Tetrazol-5-Ylmethyl)Carbamoyl]-2,3-Dihydro-1H-Indol-1-Yl]Ethyl}Carbamoyl)Propyl]Carbamoyl}Propanoic Acid]"
< 100 nM,> 750 µM,> 418 µg/mL,"CC[C@H](C)[C@H](NC(=O)CCC(C)(C)C(=O)O)C(=O)NCC(=O)N1c2ccccc2C[C@H]1C(=O)NCc1nn[nH]n1 [Example A52, 2,2-Dimethyl-4-{[(1S,2S)-2-Methyl-1-({2-Oxo-2-[(2S)-2-[(2H-1,2,3,4-Tetrazol-5-Ylmethyl)Carbamoyl]-2,3-Dihydro-1H-Indol-1-Yl]Ethyl}Carbamoyl)Butyl]Carbamoyl}Butanoic Acid]"
< 100 nM,> 750 µM,> 407 µg/mL,"CC[C@H](C)[C@H](NC(=O)CC(C)(C)C(=O)O)C(=O)NCC(=O)N1c2ccccc2C[C@H]1C(=O)NCc1nn[nH]n1 [Example A53, 2,2-Dimethyl-3-{[(1S,2S)-2-Methyl-1-({2-Oxo-2-[(2S)-2-[(2H-1,2,3,4-Tetrazol-5-Ylmethyl)Carbamoyl]-2,3-Dihydro-1H-Indol-1-Yl]Ethyl}Carbamoyl)Butyl]Carbamoyl}Propanoic Acid]"
< 100 nM,> 750 µM,> 418 µg/mL,"CC[C@H](C)[C@H](NC(=O)C(C)(C)CCC(=O)O)C(=O)NCC(=O)N1c2ccccc2C[C@H]1C(=O)NCc1nn[nH]n1 [Example A55, 4,4-Dimethyl-4-{[(1S,2S)-2-Methyl-1-({2-Oxo-2-[(2S)-2-[(2H-1,2,3,4-Tetrazol-5-Ylmethyl)Carbamoyl]-2,3-Dihydro-1H-Indol-1-Yl]Ethyl}Carbamoyl)Butyl]Carbamoyl}Butanoic Acid]"
< 100 nM,> 750 µM,> 407 µg/mL,"CC[C@H](C)[C@H](NC(=O)C(C)(C)CC(=O)O)C(=O)NCC(=O)N1c2ccccc2C[C@H]1C(=O)NCc1nn[nH]n1 [Example A56, 3,3-Dimethyl-3-{[(1S,2S)-2-Methyl-1-({2-Oxo-2-[(2S)-2-[(2H-1,2,3,4-Tetrazol-5-Ylmethyl)Carbamoyl]-2,3-Dihydro-1H-Indol-1-Yl]Ethyl}Carbamoyl)Butyl]Carbamoyl}Propanoic Acid]"
100 to 1000 nM,97 µM,62 µg/mL,"CC[C@H](C)[C@H](NC(=O)Cc1ccccc1)C(=O)NCC(=O)N1c2ccccc2C[C@H]1C(=O)NCc1c[nH]nn1 [Example B1, (2S)-1-{2-[(2S,3S)-3-Methyl-2-(2-Phenylacetamido)Pentanamido]Acetyl}-N-(1H-1,2,3-Triazol-4-Ylmethyl)-2,3-Dihydro-1H-Indole-2-Carboxamide]"
100 to 1000 nM,> 150 µM,> 78 µg/mL,"CC(C)[C@H](NC(=O)Cc1ccccc1)C(=O)NCC(=O)N1c2ccccc2C[C@H]1C(=O)NCc1nn[nH]n1 [Example C1, (2S)-1-{2-[(2S)-3-Methyl-2-(2-Phenylacetamido)Butanamido]Acetyl}-N-(2H-1,2,3,4-Tetrazol-5-Ylmethyl)-2,3-Dihydro-1H-Indole-2-Carboxamide]"
< 100 nM,> 750 µM,> 486 µg/mL,"CC[C@H](C)[C@H](NC(=O)Cc1ccccc1)C(=O)NCC(=O)N1c2cc(NC(=O)CCC(=O)O)ccc2C[C@H]1C(=O)NCc1nn[nH]n1 [Example C22, 3-{[(2S)-1-{2-[(2S,3S)-3-Methyl-2-(2-Phenylacetamido)Pentanamido]Acetyl}-2-[(2H-1,2,3,4-Tetrazol-5-Ylmethyl)Carbamoyl]-2,3-Dihydro-1H-Indol-6-Yl]Carbamoyl}Propanoic Acid]"
